Source: patent US20200385371A1 (Propellon Therapeutics Inc., priority 2017, published 2020)

How the values were obtained:
WDR5 [1] = target: T1, WDR5 (Homo sapiens, UniProt P61964); assay: Fluorescence Polarization (FP) binding assay
Method in brief: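 Displacement of fluorescein-labelled H3 (1-15) (30 nM, with 0.3 μM WDR5) or 9-Ala-FAM (20 nM, with 0.05 μM WDR5) in 80 mM sodium phosphate pH 6.5, 20 mM KCl, 0.008% Triton X-100. FP read at 485/528 nm (H3) or 480/540 nm (9-Ala-FAM); Kdisp from hyperbolic fit, mean of quadruplicates.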

MV4-11 cells = assay: Cell proliferation assay (ATPlite); type: cell-based; settings: Homo sapiens, 120 h; MV4-11 cells, five days; read-out: GI MV411 EC50
Procedure: MV4-11 cells were seeded into a 96-well plate at 1,000 cells/well in 150 μl medium (Alpha-MEM containing 10% FBS, 100 μg/ml Normocin, and 50 μg/ml Gentamycin, Invitrogen). A HP D300 digital dispenser was used to dose cells with DMSO or test compounds across a 10-point range of concentrations (high dose of 10 μM), and cultures were grown in a humidified 5% CO2 incubator at 37° C. After five days, plates were removed from incubator and equilibrated to room temperature. An equal volume of ATPlite assay reagent was added to each well, and samples were processed according to manufacturer's instructions (Perkin Elmer). Luminescent signal was measured using an Envision plate reader equipped with a US-Luminescence detector.

WDR5 [2] = target: T1, WDR5; assay: Surface Plasmon Resonance (SPR) assay; type: binding; design: Full length WDR5 with an N-terminal His tag and C-terminal AviTag; His tag (N); made in house; host or cells: E. coli; settings: read-out: SPR Kd
Method in brief: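 Full-length biotinylated WDR5 (N-His, C-AviTag, E. coli) captured (~3000 RU) on streptavidin SA chip; Biacore T200. HBS-EP pH 7.4 plus 5% DMSO running buffer, 40 μl/min.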

| IC50 (WDR5 [1]) [nM] | EC50 (MV4-11 cells) [nM] | Kd (WDR5 [2]) [nM] | Compound |
| --- | --- | --- | --- |
| 16.1 | 65.6 | 0.22 | C[C@H]1CN(c2ncc(-c3c(F)cc(N4CCN(C)[C@@H](C)C4)c(NC(=O)c4ccc(F)cc4C(F)F)c3F)cn2)C[C@H](C)O1 [Example 157, 2-(Difluoromethyl)-N-(3-(2-((2S,6S)-2,6-dimethylmorpholino)pyrimidin-5-yl)-6-((S)-3,4-dimethylpiperazin-1-yl)-2,4-difluorophenyl)-4-fluorobenzamide] |
| 19.5 | 358 | 1.37 | COc1cc(N2CCC=C(c3c(F)cc(N4CCN(C)[C@@H](C)C4)c(NC(=O)c4c[nH]c(=O)cc4C(F)(F)F)c3F)C2)ncn1 [Example 68, (S)—N-(6-(3,4-dimethylpiperazin-1-yl)-2,4-difluoro-3-(1-(6-methoxypyrimidin-4-yl)-1,2,5,6-tetrahydropyridin-3-yl)phenyl)-6-oxo-4-(trifluoromethyl)-1,6-dihydropyridine-3-carboxamide] |
| 10.9 | 33.2 | 1.94 | C[C@@H]1CN(c2ncc(-c3c(F)cc(N4CCN(C)[C@@H](C)C4)c(NC(=O)c4ccc(F)cc4C(F)F)c3F)cn2)C[C@H](C)O1 [Example 110, 2-(Difluoromethyl)-N-(3-(2-((2S,6R)-2,6-dimethylmorpholino)pyrimidin-5-yl)-6-((S)-3,4-dimethylpiperazin-1-yl)-2,4-difluorophenyl)-4-fluorobenzamide formic acid] |
| 11.2 | 74 | 1.21 | C[C@H]1CN(c2cc(F)c(-c3cnc(N4CC5CCC(C4)O5)nc3)c(F)c2NC(=O)c2c[nH]c(=O)cc2C(F)F)CCN1C [Example 155, (S)—N-(3-(2-(8-oxa-3-azabicyclo[3.2.1]octan-3-yl)pyrimidin-5-yl)-6-(3,4-dimethylpiperazin-1-yl)-2,4-difluorophenyl)-4-(difluoromethyl)-6-oxo-1,6-dihydropyridine-3-carboxamide-] |
| 7.1 | 48.8 | 0.84 | C[C@@H]1CN(c2cc(F)c(-c3cnc(N4CCOCC4)nc3)c(F)c2NC(=O)c2c[nH]c(=O)cc2C(F)F)C[C@H](C)N1C [Example 41, N-(2,4-difluoro-3-(2-morpholinopyrimidin-5-yl)-6-((3S,5R)-3,4,5-trimethylpiperazin-1-yl)phenyl)-4-(difluoromethyl)-6-oxo-1,6-dihydropyridine-3-carboxamide] |
| 13.8 | 9.55 | 2.49 | C[C@@H]1CN(c2cc(F)c(-c3cnc(N4C[C@H](C)O[C@@H](C)C4)nc3)c(F)c2NC(=O)c2c[nH]c(=O)cc2C(F)(F)F)C[C@H](C)N1C [Example 88, N-(3-(2-((2S,6S)-2,6-dimethylmorpholino)pyrimidin-5-yl)-2,4-difluoro-6-((3S,5R)-3,4,5-trimethylpiperazin-1-yl)phenyl)-6-oxo-4-(trifluoromethyl)-1,6-dihydropyridine-3-carboxamide] |
| 13.6 | 28.2 | 0.84 | CC(C)[C@@H]1CN(c2ncc(-c3c(F)cc(N4CCN(C)[C@@H](C)C4)c(NC(=O)c4c[nH]c(=O)cc4C(F)F)c3F)cn2)CCO1 [Example 117, 4-(Difluoromethyl)-N-(6-((S)-3,4-dimethylpiperazin-1-yl)-2,4-difluoro-3-(2-((R)-2-isopropylmorpholino)pyrimidin-5-yl)phenyl)-6-oxo-1,6-dihydropyridine-3-carboxamide] |
| 13 | 61.8 | 1.81 | C[C@@H]1CN(c2cc(F)c(-c3cnc(N(C)C)c(F)c3)c(F)c2NC(=O)c2c[nH]c(=O)cc2C(F)(F)F)C[C@H](C)N1C [Example 63, N-(3-(6-(dimethylamino)-5-fluoropyridin-3-yl)-2,4-difluoro-6-((3S,5R)-3,4,5-trimethylpiperazin-1-yl)phenyl)-6-oxo-4-(trifluoromethyl)-1,6-dihydropyridine-3-carboxamide] |
| 12.2 | 12.2 | 0.95 | CC(C)[C@@H]1CN(c2ncc(-c3c(F)cc(N4C[C@@H](C)N(C)[C@@H](C)C4)c(NC(=O)c4c[nH]c(=O)cc4C(F)F)c3F)cn2)CCO1 [Example 118, N-(2,4-difluoro-3-(2-((R)-2-isopropylmorpholino)pyrimidin-5-yl)-6-((3S,5R)-3,4,5-trimethylpiperazin-1-yl)phenyl)-4-(difluoromethyl)-6-oxo-1,6-dihydropyridine-3-carboxamide] |
| 14.9 | 607 | 2.97 | C[C@H]1CN(c2cc(F)c(C3=CCCN(C(=O)OC4CC(F)(F)C4)C3)c(F)c2NC(=O)c2c[nH]c(=O)cc2C(F)(F)F)CCN1C [Example 46, 3,3-Difluorocyclobutyl (S)-5-(4-(3,4-dimethylpiperazin-1-yl)-2,6-difluoro-3-(6-oxo-4-(trifluoromethyl)-1,6-dihydropyridine-3-carboxamido)phenyl)-3,6-dihydropyridine-1(2H)-carboxylate] |
| 17.5 | 63 | 1.35 | C[C@H]1CN(c2cc(F)c(C3=CCN(C(=O)OC4CC(F)(F)C4)CC3)c(F)c2NC(=O)c2c[nH]c(=O)cc2C(F)(F)F)CCN1C [Example 47, 3,3-Difluorocyclobutyl (S)-4-(4-(3,4-dimethylpiperazin-1-yl)-2,6-difluoro-3-(6-oxo-4-(trifluoromethyl)-1,6-dihydropyridine-3-carboxamido)phenyl)-3,6-dihydropyridine-1(2H)-carboxylate] |
| 13.9 | 58.9 | 0.84 | C[C@@H]1CN(c2cc(F)c(C3=CCN(c4ncc(F)cn4)CC3)c(F)c2NC(=O)c2c[nH]c(=O)cc2C(F)(F)F)C[C@H](C)N1C [Example 145, N-(2,4-difluoro-3-(1-(5-fluoropyrimidin-2-yl)-1,2,3,6-tetrahydropyridin-4-yl)-6-((3S,5R)-3,4,5-trimethylpiperazin-1-yl)phenyl)-6-oxo-4-(trifluoromethyl)-1,6-dihydropyridine-3-carboxamide] |
| 13.1 | 10.5 | 0.88 | C[C@@H]1CN(c2ncc(-c3c(F)cc(N4C[C@@H](C)N(C)[C@@H](C)C4)c(NC(=O)c4c[nH]c(=O)cc4C(F)(F)F)c3F)cn2)C[C@@H](C)O1 [Example 86, N-(3-(2-((2R,6R)-2,6-dimethylmorpholino)pyrimidin-5-yl)-2,4-difluoro-6-((3S,5R)-3,4,5-trimethylpiperazin-1-yl)phenyl)-6-oxo-4-(trifluoromethyl)-1,6-dihydropyridine-3-carboxamide] |
| 14.9 | 14.5 | 0.61 | C[C@@H]1CN(c2ncc(-c3c(F)cc(N4CCN(C)[C@@H](C)C4)c(NC(=O)c4c[nH]c(=O)cc4C(F)F)c3F)cn2)C[C@H](C)O1 [Example 33, 4-(Difluoromethyl)-N-(3-(2-((2S,6R)-2,6-dimethylmorpholino)pyrimidin-5-yl)-6-((S)-3,4-dimethylpiperazin-1-yl)-2,4-difluorophenyl)-6-oxo-1,6-dihydropyridine-3-carboxamide] |
| 22.2 | 316 | 4.49 | C[C@@H]1CN(c2cc(F)c(-c3ccc(C(N)=O)c(F)c3F)c(F)c2NC(=O)c2c[nH]c(=O)cc2C(F)(F)F)C[C@H](C)N1C [Example 26, N-(4′-carbamoyl-2,2′,3′,6-tetrafluoro-4-((3S,5R)-3,4,5-trimethylpiperazin-1-yl)-[1,1′-biphenyl]-3-yl)-6-oxo-4-(trifluoromethyl)-1,6-dihydropyridine-3-carboxamide] |
| 16.7 | 51.4 | 0.99 | C[C@@H]1CN(c2ccc(-c3c(F)cc(N4CCN(C)[C@@H](C)C4)c(NC(=O)c4c[nH]c(=O)cc4C(F)(F)F)c3F)cn2)CCO1 [Example 169, N-(6-((S)-3,4-dimethylpiperazin-1-yl)-2,4-difluoro-3-(6-((R)-2-methylmorpholino)pyridin-3-yl)phenyl)-6-oxo-4-(trifluoromethyl)-1,6-dihydropyridine-3-carboxamide] |
| 21.7 | 332 | 2.68 | COc1cnc(N2CCC=C(c3c(F)cc(N4CCN(C)[C@@H](C)C4)c(NC(=O)c4c[nH]c(=O)cc4C(F)F)c3F)C2)nc1 [Example 49, (S)-4-(difluoromethyl)-N-(6-(3,4-dimethylpiperazin-1-yl)-2,4-difluoro-3-(1-(5-methoxypyrimidin-2-yl)-1,2,5,6-tetrahydropyridin-3-yl)phenyl)-6-oxo-1,6-dihydropyridine-3-carboxamide] |
| 17.4 | 93.9 | 2.17 | C[C@H]1CN(c2cc(F)c(C3=CCCN(C(=O)OC4(C)CCC4)C3)c(F)c2NC(=O)c2c[nH]c(=O)cc2C(F)F)CCN1C [Example 94, 1-Methylcyclobutyl (S)-5-(3-(4-(difluoromethyl)-6-oxo-1,6-dihydropyridine-3-carboxamido)-4-(3,4-dimethylpiperazin-1-yl)-2,6-difluorophenyl)-3,6-dihydropyridine-1(2H)-carboxylate] |
